According to ChEMBL document CHEMBL5252524, “Therapeutic progress in amyotrophic lateral sclerosis-beginning to learning” (2016):

What was measured:
Assay type in all cases: functional
[1] = species on record: Mus musculus; assay: Anti-inflammatory activity against ALS transgenic mouse model harbouring human G93A SOD1 (B6SJL-TgN(SOD1-G93A)1Gur mutant assessed as survival relative to control
[2] = species on record: Mus musculus; assay: Anti-excitotoxic activity against ALS transgenic mouse model harbouring human G93A SOD1 (B6SJL-TgN(SOD1-G93A)1Gur mutant assessed as survival relative to control
[3] = target: Superoxide dismutase [Cu-Zn] (Homo sapiens) (UniProt P00441); assay: Effect on human SOD1 protein homeostasis in ALS mouse model assessed as survival relative to control
[4] = species on record: Mus musculus; assay: Anti-inflammatory activity against ALS mouse model harbouring human G93A SOD1 mutant assessed as survival relative to control
[5] = species on record: Mus musculus; assay: Anti-apoptotic activity against ALS mouse model assessed as animal survival relative to control
[6] = species on record: Mus musculus; assay: Anti-inflammatory activity against ALS mouse model assessed as animal survival relative to control
[7] = species on record: Mus musculus; assay: Anti-oxidative activity against ALS mouse model assessed as animal survival relative to control
[8] = species on record: Mus musculus; assay: Anti-apoptotic activity against ALS mouse model expressing human G93A SOD1 mutant assessed as survival relative to control
[9] = species on record: Mus musculus; assay: Effect on mitochondrial protection in ALS mouse model assessed as survival relative to control
[10] = species on record: Mus musculus; assay: Anti-oxidative activity against ALS transgenic mouse model harbouring human G93A SOD1 (B6SJL-TgN(SOD1-G93A)1Gur mutant assessed as survival relative to control
[11] = species on record: Mus musculus; assay: Anti-excitotoxic activity against ALS mouse model assessed as animal survival relative to control
[12] = species on record: Mus musculus; assay: Anti-inflammatory activity against ALS B6SJLF1/J mouse model assessed as animal survival relative to control

Chain of Superoxide dismutase [Cu-Zn] (Homo sapiens) (P00441 whole entry): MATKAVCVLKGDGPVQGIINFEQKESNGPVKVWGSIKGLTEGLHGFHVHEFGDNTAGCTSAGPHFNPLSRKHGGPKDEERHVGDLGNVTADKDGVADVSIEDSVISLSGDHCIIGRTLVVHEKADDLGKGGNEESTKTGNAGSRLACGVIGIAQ

With CC1=C(O)C(=O)C=C2C1=CC=C1[C@@]2(C)CC[C@@]2(C)[C@@H]3C[C@](C)(C(=O)O)CC[C@]3(C)CC[C@]12C [CELASTROL] as the compound, how does the Survival [1] read?
Its Survival is 9%.

How did the Survival [2] turn out when CO/N=C(\C(=O)N[C@@H]1C(=O)N2C(C(=O)O)=C(CSc3nc(=O)c(O)nn3C)CS[C@H]12)c1csc(N)n1 [CEFTRIAXONE] was run?
The Survival was 8%.

Which Survival [3] does the source give for [O-][n+]1cccc(/C(Cl)=N/OC[C@H](O)CN2CCCCC2)c1 here?
Its Survival is 9%.

How did the Survival [4] turn out when CN1CCCCC1Cn1cc(C(=O)c2cc([N+](=O)[O-])ccc2I)c2ccccc21 (centres undefined) was run?
Its Survival is 10%.

How did the Survival [2] turn out when CC12CC3CC(C)(C1)CC(N)(C3)C2 [MEMANTINE] was run?
The Survival was 5%.

For O=C([O-])[O-].[Li+].[Li+], which Survival [3] is on record?
Its Survival is 36%.

For CN(C)c1ccc(O)c2c1C[C@H]1C[C@H]3[C@H](N(C)C)C(O)=C(C(N)=O)C(=O)[C@@]3(O)C(O)=C1C2=O [MINOCYCLINE], which Survival [5] is on record?
The Survival was 6%.

How did the Survival [5] turn out when O=C([O-])CCCc1ccccc1.[Na+] [SODIUM PHENYLBUTYRATE] was run?
The Survival was 22%.

How did the Survival [6] turn out when Cc1ccc(-c2cc(C(F)(F)F)nn2-c2ccc(S(N)(=O)=O)cc2)cc1 [CELECOXIB] was run?
The Survival was 25%.

How did the Survival [6] turn out when O=C1CCC(N2C(=O)c3ccccc3C2=O)C(=O)N1 (centres undefined) [THALIDOMIDE] was run?
Its Survival is 12%.

C#CCN(C)Cc1ccc(O)c2ncccc12 was tested. Which Survival [7] did it give?
Its Survival is 6%.

Which Survival [8] does the source give for COc1ccc2[nH]cc(CCNC(C)=O)c2c1 [MELATONIN] here?
The Survival was 7%.

With CC(C)CCC[C@@H](C)[C@H]1CC[C@H]2[C@@H]3CCC4=CC(=NO)CC[C@]4(C)[C@H]3CC[C@]12C [OLESOXIME] as the compound, how does the Survival [9] read?
Its Survival is 10%.

With CN(CC(=O)O)C(=N)N.O as the compound, how does the Survival [9] read?
The Survival was 15%.

For CC(=O)N[C@@H](CS)C(=O)O [ACETYLCYSTEINE], which Survival [10] is on record?
Its Survival is 7%.

For Nc1nc2ccc(OC(F)(F)F)cc2s1 [RILUZOLE], which Survival [11] is on record?
The Survival was 10%.

Which Survival [10] does the source give for COC1=C(OC)C(=O)C(CCCCCCCCCC[P+](c2ccccc2)(c2ccccc2)c2ccccc2)=C(C)C1=O.CS(=O)(=O)[O-] [MITOQUINONE MESYLATE] here?
The Survival was 4%.

Which Survival [12] does the source give for CCc1ccc(CCOc2ccc(CC3SC(=O)NC3=O)cc2)nc1 (centres undefined) [PIOGLITAZONE] here?
The Survival was 8%.

Nc1cccc2c1CN(C1CCC(=O)NC1=O)C2=O (centres undefined) [LENALIDOMIDE] was tested. Which Survival [1] did it give?
Its Survival is 18%.
